Data on two molecules can be found in patent publication US9783590B2 (priority 2003, dated 2017).

The subject of one experiment is human subjects. Nature of the experiment: PTC phenotype determination (blinded sorting taste threshold test). The experiment is classed as in vivo. An excerpt: Subjects began tasting a solution of 1 micromolar PTC (solution #14) and proceeded in 2-fold increasing concentration increments (solutions 13, 12, 11 . . . ) until a bitter taste was perceived. Subjects then performed a blinded sorting test containing 3 cups of PTC solution and 3 cups of water. Raw taste threshold was the most dilute solution at which the subject could correctly sort all 6 cups. We also included a quinine threshold measurement according to Blakeslee & Salmon (Proc. Natl. Acad. Sci. USA 21, 84, 1935) to identify and exclude individuals with general deficits in bitter taste (aguesia). For dichotomous assignment of phenotype, we considered individuals unable to taste PTC before solution #6, i.e. at concentrations less than 267 micromolar PTC, to be non-tasters. Although the classic method includes corrections for age and sex, analysis of our raw PTC taste threshold data indicated only a modest sex effect, with females more sensitive than males (p=0.00324, proportion of variance explained=5.1%). No effect of age on PTC scores was observed. As a result, raw PTC threshold scores were used for all analyses.
The Utah C.E.P.H. families were enrolled in conjunction with the Utah Genetic Reference Project under University of Utah IRB approved protocol #6090-96, and consisted of individuals of Northern European ancestry. Subjects in the NIH replication sample were enrolled under NIH/NINDS IRB approved protocol # DC-01-230, and were of European, Asian, African American, and Native American ancestry. Human Diversity Panel DNAs (sub-Saharan African, Asian, and Southwest Native American) and primate DNAs were obtained from the Coriell Cell Repository, Camden, N.J. The Utah sample consists of 27 families comprising 269 individuals; both haplotype and phenotype information was available for 180 of these individuals. The NIH replication sample of consisted of 85 unrelated individuals of known haplotype and phenotype; 51 were European, 5 Pakistani, 23 East Asian, and 6 African-American. One African-American is not considered in the analysis due to a rare AAV/AAI diplotype. H is raw PTC score is 7.

Another experiment addresses T1, T2R16 (Homo sapiens, UniProt Q9NYV7).
T1 sequence (Q9NYV7 1-291): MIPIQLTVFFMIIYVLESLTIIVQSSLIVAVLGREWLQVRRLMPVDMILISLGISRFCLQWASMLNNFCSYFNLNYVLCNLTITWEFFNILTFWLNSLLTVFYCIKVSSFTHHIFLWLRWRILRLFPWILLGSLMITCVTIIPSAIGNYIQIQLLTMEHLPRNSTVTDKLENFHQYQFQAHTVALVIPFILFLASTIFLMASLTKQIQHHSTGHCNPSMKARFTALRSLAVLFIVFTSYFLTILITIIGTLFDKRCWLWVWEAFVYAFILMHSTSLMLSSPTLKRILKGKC
The following applies: in vitro cell based assays, Bufe et al. 2002; cited from earlier work.

The structures appear in SMILES notation.

In the case of `NC(=S)Nc1ccccc1` [PTC, phenylthiocarbamide], the “mean PTC score” value stood at 1.86 in the experiment with human subjects (AVI homozygotes, NIH sample); 4.31 with human subjects (AVI homozygotes, Utah sample); 8.81 in the experiment with human subjects (PAV heterozygotes, NIH sample); 9.65 in the experiment on human subjects (PAV heterozygotes, Utah sample); 10.00 in the experiment with human subjects (PAV homozygotes, NIH sample); 10.69 with human subjects (PAV homozygotes, Utah sample, score = number of most dilute solution correctly sorted (#14 = 1 micromolar, 2-fold steps)). Further, in the experiment on human subjects (one subject, AAV/AAI diplotype, NIH sample), the “raw PTC score” value was found to be 7.

Turning to `OCc1ccccc1O[C@@H]1O[C@H](CO)[C@@H](O)[C@H](O)[C@H]1O` [salicin], the “receptor response to tastant” value at T2R16 was “responds”.
